# Measurements reported in PubChem BioAssay AID1963431 (Molecular Pharmacology Branch, DTP, NCI, 2024).
# System: Rh18 complex spheroid viability, percent test/control
# Assay: Anticancer human tumor Rh18 cell line growth inhibition [Asc];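 further: spheroids exposed to compound for 7 days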;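 on viability, T/C: 100% = DMSO vehicle control wells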
# Details: for IC50: curve of first compound; for viability, T/C: stronger effect = lower value
# Procedure, shortened: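 Tumor cells were grown as multicellular spheroids with stromal HUVEC and mesenchymal stem cells and treated singly or in combination. Concentrations fell in half-log steps from the clinical Cmax, or from 10 microM where none was known.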
# [1] = second compound 0.01 µM, first compound 0.0316 µM
# [2] = second compound 0.01 µM, first compound 0.1 µM
# [3] = second compound 0.01 µM, first compound 0.316 µM
# [4] = second compound 0.01 µM, first compound 1 µM
# [5] = second compound 0.0316 µM, first compound 0.0316 µM
# [6] = second compound 0.0316 µM, first compound 0.1 µM
# [7] = second compound 0.0316 µM, first compound 0.316 µM
# [8] = second compound 0.0316 µM, first compound 1 µM
# [9] = second compound 0.1 µM, first compound 0.0316 µM
# [10] = second compound 0.1 µM, first compound 0.1 µM
# [11] = second compound 0.1 µM, first compound 0.316 µM
# [12] = second compound 0.1 µM, first compound 1 µM
# [13] = second compound 0.316 µM, first compound 0.0316 µM
# [14] = second compound 0.316 µM, first compound 0.1 µM
# [15] = second compound 0.316 µM, first compound 0.316 µM
# [16] = second compound 0.316 µM, first compound 1 µM
# [17] = second compound 1 µM, first compound 0.0316 µM
# [18] = second compound 1 µM, first compound 0.1 µM
# [19] = second compound 1 µM, first compound 0.316 µM
# [20] = second compound 1 µM, first compound 1 µM
# [21] = second compound 0.01 µM, first compound 0.00316 µM
# [22] = second compound 0.01 µM, first compound 0.01 µM
# [23] = second compound 0.0316 µM, first compound 0.00316 µM
# [24] = second compound 0.0316 µM, first compound 0.01 µM
# [25] = second compound 0.1 µM, first compound 0.00316 µM
# [26] = second compound 0.1 µM, first compound 0.01 µM
# [27] = second compound 0.316 µM, first compound 0.00316 µM
# [28] = second compound 0.316 µM, first compound 0.01 µM
# [29] = second compound 1 µM, first compound 0.00316 µM
# [30] = second compound 1 µM, first compound 0.01 µM
smiles,measurement,setting,value
C=CC(=O)N1CCN(c2nc(=O)n(-c3c(C)ccnc3C(C)C)c3nc(-c4c(O)cccc4F)c(F)cc23)C(C)C1 (stereo not given) + CNC(C)C(=O)NC1CN(S(=O)(=O)c2cccc(S(=O)(=O)N3CCC4CCC(C(=O)NC(c5ccccc5)c5ccccc5)N4C(=O)C(NC(=O)C(C)NC)C3)c2)CCC2CCC(C(=O)NC(c3ccccc3)c3ccccc3)N2C1=O,IC50,second compound 0.01 µM,> 10000 nM
same,IC50,second compound 0.0316 µM,4450 nM
same,IC50,second compound 0.1 µM,61 nM
same,IC50,second compound 0.316 µM,< 31.6 nM
same,IC50,second compound 1 µM,< 31.6 nM
same,"viability, T/C",[1],61.6%
same,"viability, T/C",[2],63.6%
same,"viability, T/C",[3],56%
same,"viability, T/C",[4],51.8%
same,"viability, T/C","second compound 0.01 µM, first compound 3.16 µM",59.8%
same,"viability, T/C","second compound 0.01 µM, first compound 10 µM",61.1%
same,"viability, T/C",[5],52.4%
same,"viability, T/C",[6],54.8%
same,"viability, T/C",[7],61.9%
same,"viability, T/C",[8],46.2%
same,"viability, T/C","second compound 0.0316 µM, first compound 3.16 µM",60.7%
same,"viability, T/C","second compound 0.0316 µM, first compound 10 µM",37.8%
same,"viability, T/C",[9],49.4%
same,"viability, T/C",[10],52%
same,"viability, T/C",[11],48.6%
same,"viability, T/C",[12],43.1%
same,"viability, T/C","second compound 0.1 µM, first compound 3.16 µM",46.4%
same,"viability, T/C","second compound 0.1 µM, first compound 10 µM",43.6%
same,"viability, T/C",[13],43.1%
same,"viability, T/C",[14],41.3%
same,"viability, T/C",[15],41.2%
same,"viability, T/C",[16],43.9%
same,"viability, T/C","second compound 0.316 µM, first compound 3.16 µM",52.5%
same,"viability, T/C","second compound 0.316 µM, first compound 10 µM",45.4%
same,"viability, T/C",[17],44.1%
same,"viability, T/C",[18],45%
same,"viability, T/C",[19],46.4%
same,"viability, T/C",[20],40%
same,"viability, T/C","second compound 1 µM, first compound 3.16 µM",35.4%
same,"viability, T/C","second compound 1 µM, first compound 10 µM",35.9%
COc1c(OCCCN2CCOCC2)ccc2c3n(c(=NC(=O)c4cnc(N)nc4)nc12)CCN3 + CNC(C)C(=O)NC1CN(S(=O)(=O)c2cccc(S(=O)(=O)N3CCC4CCC(C(=O)NC(c5ccccc5)c5ccccc5)N4C(=O)C(NC(=O)C(C)NC)C3)c2)CCC2CCC(C(=O)NC(c3ccccc3)c3ccccc3)N2C1=O,IC50,second compound 0.01 µM,4.1 nM
same,IC50,second compound 0.0316 µM,< 3.16 nM
same,IC50,second compound 0.1 µM,< 3.16 nM
same,IC50,second compound 0.316 µM,< 3.16 nM
same,IC50,second compound 1 µM,< 3.16 nM
same,"viability, T/C",[21],56.5%
same,"viability, T/C",[22],28.1%
same,"viability, T/C",[1],13.5%
same,"viability, T/C",[2],5.19%
same,"viability, T/C",[3],1.61%
same,"viability, T/C",[4],0.4%
same,"viability, T/C",[23],38.4%
same,"viability, T/C",[24],26.1%
same,"viability, T/C",[5],8.33%
same,"viability, T/C",[6],2.99%
same,"viability, T/C",[7],2.16%
same,"viability, T/C",[8],0.41%
same,"viability, T/C",[25],37.3%
same,"viability, T/C",[26],27.9%
same,"viability, T/C",[9],9.81%
same,"viability, T/C",[10],2.85%
same,"viability, T/C",[11],1.49%
same,"viability, T/C",[12],0.35%
same,"viability, T/C",[27],31.4%
same,"viability, T/C",[28],22.4%
same,"viability, T/C",[13],9.6%
same,"viability, T/C",[14],2.64%
same,"viability, T/C",[15],1.51%
same,"viability, T/C",[16],0.29%
same,"viability, T/C",[29],27.5%
same,"viability, T/C",[30],20.3%
same,"viability, T/C",[17],6.75%
same,"viability, T/C",[18],3.45%
same,"viability, T/C",[19],1.17%
same,"viability, T/C",[20],0.36%
NC(=O)C(=Cn1cnc(-c2cc(C(F)(F)F)cc(C(F)(F)F)c2)n1)c1cncnc1 + CNC(C)C(=O)NC1CN(S(=O)(=O)c2cccc(S(=O)(=O)N3CCC4CCC(C(=O)NC(c5ccccc5)c5ccccc5)N4C(=O)C(NC(=O)C(C)NC)C3)c2)CCC2CCC(C(=O)NC(c3ccccc3)c3ccccc3)N2C1=O,IC50,second compound 0.01 µM,6.12 nM
same,IC50,second compound 0.0316 µM,3.91 nM
same,IC50,second compound 0.1 µM,15 nM
same,IC50,second compound 0.316 µM,4.49 nM
same,IC50,second compound 1 µM,< 0.949 nM
same,"viability, T/C","second compound 0.01 µM, first compound 0.000949 µM",56.6%
same,"viability, T/C","second compound 0.01 µM, first compound 0.003 µM",53.5%
same,"viability, T/C","second compound 0.01 µM, first compound 0.00949 µM",49.4%
same,"viability, T/C","second compound 0.01 µM, first compound 0.03 µM",39.7%
same,"viability, T/C","second compound 0.01 µM, first compound 0.0949 µM",42%
same,"viability, T/C","second compound 0.01 µM, first compound 0.3 µM",32.8%
same,"viability, T/C","second compound 0.0316 µM, first compound 0.000949 µM",74.8%
same,"viability, T/C","second compound 0.0316 µM, first compound 0.003 µM",51.3%
same,"viability, T/C","second compound 0.0316 µM, first compound 0.00949 µM",40.7%
same,"viability, T/C","second compound 0.0316 µM, first compound 0.03 µM",43.8%
same,"viability, T/C","second compound 0.0316 µM, first compound 0.0949 µM",38.7%
same,"viability, T/C","second compound 0.0316 µM, first compound 0.3 µM",31.4%
same,"viability, T/C","second compound 0.1 µM, first compound 0.000949 µM",50.5%
same,"viability, T/C","second compound 0.1 µM, first compound 0.003 µM",56.4%
same,"viability, T/C","second compound 0.1 µM, first compound 0.00949 µM",49.7%
same,"viability, T/C","second compound 0.1 µM, first compound 0.03 µM",47.6%
same,"viability, T/C","second compound 0.1 µM, first compound 0.0949 µM",33.1%
same,"viability, T/C","second compound 0.1 µM, first compound 0.3 µM",27.7%
same,"viability, T/C","second compound 0.316 µM, first compound 0.000949 µM",52%
same,"viability, T/C","second compound 0.316 µM, first compound 0.003 µM",60.1%
same,"viability, T/C","second compound 0.316 µM, first compound 0.00949 µM",38.7%
same,"viability, T/C","second compound 0.316 µM, first compound 0.03 µM",29.7%
same,"viability, T/C","second compound 0.316 µM, first compound 0.0949 µM",34.3%
same,"viability, T/C","second compound 0.316 µM, first compound 0.3 µM",24.9%
same,"viability, T/C","second compound 1 µM, first compound 0.000949 µM",46%
same,"viability, T/C","second compound 1 µM, first compound 0.003 µM",39.5%
same,"viability, T/C","second compound 1 µM, first compound 0.00949 µM",38%
same,"viability, T/C","second compound 1 µM, first compound 0.03 µM",37.8%
same,"viability, T/C","second compound 1 µM, first compound 0.0949 µM",34.3%
same,"viability, T/C","second compound 1 µM, first compound 0.3 µM",25.6%
NC1CCC(NC2CC2c2ccccc2)CC1 (stereo not given) + CNC(C)C(=O)NC1CN(S(=O)(=O)c2cccc(S(=O)(=O)N3CCC4CCC(C(=O)NC(c5ccccc5)c5ccccc5)N4C(=O)C(NC(=O)C(C)NC)C3)c2)CCC2CCC(C(=O)NC(c3ccccc3)c3ccccc3)N2C1=O,IC50,second compound 0.01 µM,> 100 nM
same,IC50,second compound 0.0316 µM,> 100 nM
same,IC50,second compound 0.1 µM,< 0.316 nM
same,IC50,second compound 0.316 µM,> 100 nM
same,IC50,second compound 1 µM,< 0.316 nM
same,"viability, T/C","second compound 0.01 µM, first compound 0.000316 µM",53.7%
same,"viability, T/C","second compound 0.01 µM, first compound 0.001 µM",72.9%
same,"viability, T/C",[21],72.5%
same,"viability, T/C",[22],66.5%
same,"viability, T/C",[1],65.1%
same,"viability, T/C",[2],61.5%
same,"viability, T/C","second compound 0.0316 µM, first compound 0.000316 µM",53%
same,"viability, T/C","second compound 0.0316 µM, first compound 0.001 µM",53.9%
same,"viability, T/C",[23],53.5%
same,"viability, T/C",[24],61.5%
same,"viability, T/C",[5],53.1%
same,"viability, T/C",[6],53%
same,"viability, T/C","second compound 0.1 µM, first compound 0.000316 µM",48.1%
same,"viability, T/C","second compound 0.1 µM, first compound 0.001 µM",54.7%
same,"viability, T/C",[25],48.7%
same,"viability, T/C",[26],55.5%
same,"viability, T/C",[9],52.3%
same,"viability, T/C",[10],56.1%
same,"viability, T/C","second compound 0.316 µM, first compound 0.000316 µM",53.6%
same,"viability, T/C","second compound 0.316 µM, first compound 0.001 µM",54%
same,"viability, T/C",[27],52.6%
same,"viability, T/C",[28],53.1%
same,"viability, T/C",[13],53.6%
same,"viability, T/C",[14],59.4%
same,"viability, T/C","second compound 1 µM, first compound 0.000316 µM",43.8%
same,"viability, T/C","second compound 1 µM, first compound 0.001 µM",50.9%
same,"viability, T/C",[29],42.6%
same,"viability, T/C",[30],44.8%
same,"viability, T/C",[17],50.2%
same,"viability, T/C",[18],56%
